Laboratory results taken from patent publication US20030073740A1, “Methods for treatment of lupus erythematosus” (priority 2001, published 2003).
Read-outs that look alike come from different tables or passages of the source.

Key:
[1] = molecular target: T1, GST-cGB-PDE5 fusion protein (cGMP binding sites of human PDE5A) (Homo sapiens, UniProt O76074); experiment: cGMP binding assay with GST-cGB-PDE5 fusion protein; conditions: for competition with cGMP binding to GST-cGB-PDE5 at high concentration: 100 μM compound, cGMP 2 μM
T1 construct: made in house; host or cells: E. coli BL21 (DE3)
Description: RT-PCR method is used to obtain the cGB domain of PDE5 with forward and reverse primers designed from bovine PDE5A cDNA sequence (McAllister-Lucas L. M. et al, J. Biol. Chem. 268, 22863-22873, 1993) and the selection among PDE 1-10 families. 5′-3′, Inc. kits for total RNA followed by oligo (dT) column purification of mRNA are used with HT-29 cells. […] It is then cloned into pGEX-5X-3 glutathione-S-transferase (GST) fusion vector (Pharmacia Biotech )with tac promoter, and EcoR1 and XhoI cut sites. The fusion vector is then transfected into E. Coli BL21 (DE3) bacteria (Invitrogen). The transfected BL21 bacteria is grown to log phase, and then IPTG is added as an inducer. The induction is carried at 20° C. for 24 hrs. The bacteria are harvested and lysed. The soluble cell lysate is incubated with GSH conjugated Sepharose 4B (GSH-Sepharose 4B). The GST-cGB-PDE5 fusion protein can bind to the GSH-Sepharose beads, and the other proteins are washed off from beads with excessive cold PBS.
Then, the mixture is transferred to Brandel MB-24 cell harvester with GF/B as the filter membrane followed by 2 washes with 10 mL of cold 5 mM potassium buffer(pH 6.8). The membranes are then cut out and transferred to scintillation vials followed by the addition of 1 mL of H2O and 6 mL of Ready Safe™ liquid scintillation cocktail to each vial. The vials are counted on a Beckman LS 6500 scintillation counter.
The quenching by filter membrane or other debris are also calibrated.

[2] = molecular target: T2, COX I (purified cyclooxygenase Type I) (Ovis aries, UniProt P05979); experiment: Cyclooxygenase (COX) inhibition, purified COX; assay type: biochemical, ram; conditions: arachidonic acid 100 μM, 2.0 min, 37° C.
T2 construct: The COX was purified from ram seminal vesicles; from tissue; host or cells: ram seminal vesicles
T2 sequence (P05979 25-600): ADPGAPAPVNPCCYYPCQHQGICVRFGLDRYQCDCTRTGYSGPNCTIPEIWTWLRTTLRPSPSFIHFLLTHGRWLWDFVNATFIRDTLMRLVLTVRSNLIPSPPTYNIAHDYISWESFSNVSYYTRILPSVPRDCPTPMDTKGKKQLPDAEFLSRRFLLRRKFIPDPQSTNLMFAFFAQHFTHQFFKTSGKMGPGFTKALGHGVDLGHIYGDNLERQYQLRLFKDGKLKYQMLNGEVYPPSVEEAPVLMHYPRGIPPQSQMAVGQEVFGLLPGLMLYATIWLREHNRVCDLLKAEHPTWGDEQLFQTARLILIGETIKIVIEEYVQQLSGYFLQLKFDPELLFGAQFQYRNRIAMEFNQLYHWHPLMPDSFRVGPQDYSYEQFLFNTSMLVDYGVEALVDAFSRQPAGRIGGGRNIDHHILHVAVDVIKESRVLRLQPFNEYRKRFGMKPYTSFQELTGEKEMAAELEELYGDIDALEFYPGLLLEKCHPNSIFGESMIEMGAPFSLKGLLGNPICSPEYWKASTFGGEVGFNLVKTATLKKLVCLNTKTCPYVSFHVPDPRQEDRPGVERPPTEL
Method: COX catalyzes the formation of prostaglandins and thromboxane by the oxidative metabolism of arachidonic acid. The compound of Example 1 of this invention, as well as a positive control, (sulindac sulfide) were evaluated to determine whether they inhibited purified cyclooxygenase Type I (see Table 1 below).
The compounds of this invention were evaluated for inhibitory effects on purified COX. The COX was purified from ram seminal vesicles, as described by Boopathy, R. and Balasubramanian, J., 239:371-377, 1988. COX activity was assayed as described by Evans, A. T., et al., “Actions of Cannabis Constituents on Enzymes Of Arachidonate Metabolism Anti-Inflammatory Potential,” Biochem. Pharmacol., 36:2035-2037, 1987. Briefly, purified COX was incubated with arachidonic acid (100 μM) for 2.0 min at 37° C. in the presence or absence of test compounds. The assay was terminated by the addition of TCA, and COX activity was determined by absorbance at 530 nm.

native bovine PDE5 = native bovine PDE5 (Bos taurus, UniProt Q28156); conditions: read-out: Kd of cGMP binding, native bovine PDE5; cited from earlier work
U937 cells = experiment: apoptosis induction of U937 cells (active caspase 3 immunofluorescence); assay type: cell-based; conditions: U937 cells, 24 hours
Method: U937 cells (from ATCC Rockville, Md.) were grown in RPMI media supplemented with 5% FCS, glutamine, antibiotic/antimycotic and sodium pyruvate. Total RNA was isolated from two U937 cultures, one treated with 5 nM TPA for 48 hours and one grown in normal media as listed above, using the Rouche High Pure RNA Isolation Kit (cat# 1 828 665) as per manufacturers protocol. cDNA was then synthesized from the total RNA using GibcoBRL SuperscriptII (Cat # 18064-022) reverse transcriptase as per manufacturers protocol. The resulting cDNA was used as a template for RT-PCR reactions using primer sets specific for PDE2 (forward: […], reverse: […]) or PDE5 (forward: […], reverse: […]). mRNA for PDE2 and 5 were both present in the untreated U937 cells. Upon treatment with TPA, the relative amounts of PDE2 mRNA increased 5 fold. Therefore, U937 cells treated with TPA and driven to differentiate into an activated macrophage like state have elevated levels of PDE2 mRNA (see FIG. 1).
The presence of PDE2 and PDE5 protein within U937 cells was confirmed by indirect immunofluorescence (IIF). U937 cells were cultured as above. Two U937 cultures, one grown in the presence of 5 nM TPA for 48 hours and one grown in normal media were processed. All cultures were collected by centrifugation (Shandon Cytospin, 2 minutes @ 600 rpm) onto poly-L lysine-coated slides and immediately fixed in fresh 3% paraformaldehyde buffered in PBS for 10 minutes. Adherent cultures were grown on coverslips and fixed as above. Cells were permeablized in 0.2% triton-100 for 2 minutes. Slides were blocked with blocking buffer (5% goat serum, 5% glycerol, 1% gelatin from cold water fish skin and 0.04% NaN3 in PBS) for 1 hour at room temperature.
Adherent cells were dislodged by treatment with trypsin EDTA for 5 minutes at 37° C. Cells were then processed for IIF as described above, except that an antibody specific for active caspase 3 was used (as per manufacturer's protocol) instead of antibodies to PDE2 or 5 (Promega Cat. #G7481). The anti-active caspase 3 antibody was diluted 1:200 in blocking buffer and processed according to the manufacturer's protocol. The resulting slides were observed under a fluorescent microscope and a digital images were obtained.
The level of apoptosis in U937 cells was quantified by scoring 500 consecutive cells for the presence of active caspase 3.
The cells were harvested and processed for IIF as described above using an antibody that specifically recognizes active caspase 3. […] Therefore, the inhibition of only PDE4 or PDE5 alone (i.e. without the inhibition of PDE2) is not sufficient to induce apoptosis in U937 cells.

T1 sequence (O76074 46-539 limits assumed): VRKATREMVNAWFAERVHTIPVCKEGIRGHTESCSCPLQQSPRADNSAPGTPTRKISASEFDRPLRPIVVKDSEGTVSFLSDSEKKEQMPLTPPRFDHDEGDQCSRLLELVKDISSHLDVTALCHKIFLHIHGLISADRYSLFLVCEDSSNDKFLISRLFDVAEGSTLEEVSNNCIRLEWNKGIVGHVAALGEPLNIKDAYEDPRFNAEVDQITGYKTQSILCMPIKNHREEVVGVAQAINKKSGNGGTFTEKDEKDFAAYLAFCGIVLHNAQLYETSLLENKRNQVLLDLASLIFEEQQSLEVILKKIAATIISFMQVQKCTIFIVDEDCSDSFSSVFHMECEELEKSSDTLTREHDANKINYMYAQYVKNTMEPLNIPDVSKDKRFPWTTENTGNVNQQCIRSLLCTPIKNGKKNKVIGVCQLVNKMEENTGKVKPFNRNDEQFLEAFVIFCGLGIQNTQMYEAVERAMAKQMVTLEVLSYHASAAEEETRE

Structure (SMILES)	competition with cGMP in binding to the cGMP binding sites of GST-cGB-PDE5 ([1]; 3H-cGMP 2 μM)	further results
CCCCOC1C2OP(=O)(O)OCC2OC1n1cnc2c(N)ncnc21 (stereo not drawn) [2′-O-butyl-cAMP]	did not compete	
CCCCOC1C2OP(=O)(O)OCC2OC1n1cnc2c(=O)[nH]c(N)nc21 (stereo not drawn) [2′-O-butyl-cGMP]	did not compete	
Nc1ncnc2c1ncn2[C@@H]1O[C@@H]2COP(=O)(O)O[C@H]2[C@H]1O [Cyclic AMP]		competition with cGMP in binding to the cGMP binding sites of GST-cGB-PDE5 [1]: did not compete
O=c1[nH]cnc2c1ncn2[C@@H]1O[C@@H]2COP(=O)(O)O[C@H]2[C@H]1O [Cyclic IMP]		competition with cGMP binding to GST-cGB-PDE5 at high concentration [1]: partially compete
CC1=C(CC(=O)NCc2ccccc2)c2cc(F)ccc2/C1=C\c1ccncc1 [Example 1, (Z)-5-Fluoro-2-Methyl-(4-Pyridinylidene)-3-(N-Benzyl)-Indenylacetamide]		inhibition at 100 µM [2]: < 25%
Nc1nc2c(nc(Br)n2[C@@H]2O[C@@H]3COP(=O)(O)O[C@H]3[C@H]2O)c(=O)[nH]1 [Example 8-bromo-cGMP, 8-bromo-cGMP]		competition with cGMP binding to GST-cGB-PDE5 at high concentration [1]: partially compete
O=C(O)C1CCN(c2nc(NCc3ccc4c(c3)OCO4)c3cc(Cl)ccc3n2)CC1 [Example E4021]	None of the PDE5 inhibitors showed any competition	
CSc1ccc(/C=C2/C(C)=C(CC(=O)O)c3cc(F)ccc32)cc1 [Sulindac sulfide, sulindac sulfide, reference compound]	None of the PDE5 inhibitors showed any competition	inhibition at 100 µM [2]: 86%
Nc1ccn([C@@H]2O[C@@H]3COP(=O)(O)O[C@H]3[C@H]2O)c(=O)n1 [cCMP, cyclic CMP]	did not compete	
Nc1nc2c(ncn2[C@@H]2O[C@@H]3COP(=O)(O)O[C@H]3[C@H]2O)c(=O)[nH]1 [cGMP, cyclic 3′,5′-guanosine monophosphate]	specifically bound	Kd (native bovine PDE5): 1.3 µM; Kd ([1]; read-out: Kd of cGMP binding to GST-cGB-PDE5 fusion protein, two cGMP binding sites): 1.6 ± 0.2 µM
O=c1ccn([C@@H]2O[C@@H]3COP(=O)(O)O[C@H]3[C@H]2O)c(=O)[nH]1 [cUMP, cyclic UMP]	did not compete	
CC1=C(CC(=O)O)c2cc(F)ccc2/C1=C\c1ccc(S(C)(=O)=O)cc1 [exisulind]	None of the PDE5 inhibitors showed any competition	
COc1ccc(C2CNC(=O)C2)cc1OC1CCCC1 (stereo not drawn) [rolipram, reference compound]		levels of apoptosis compared to normal background (active caspase 3) (U937 cells; 0.5 uM): No increase in the levels of apoptosis
CCCc1nn(C)c2c(=O)[nH]c(-c3cc(S(=O)(=O)N4CCN(C)CC4)ccc3OCC)nc12 [sildenafil, reference compound]		levels of apoptosis compared to normal background (active caspase 3) (U937 cells; 0.3 nM): No increase in the levels of apoptosis
CCCOc1ccccc1-c1nc2nn[nH]c2c(=O)[nH]1 [zaprinast]	None of the PDE5 inhibitors showed any competition	
